Assay results reported in US20240270759A1, “Preparation of SHP2 phosphatase inhibitors and its applications” (Ya Therapeutics Inc, priority 2021, published 2024).

Target: T1, SHP2 full-length protein (Homo sapiens, UniProt Q06124)
T1 construct: purchased BPS Bioscience #79330
T1 sequence (Q06124 1-593): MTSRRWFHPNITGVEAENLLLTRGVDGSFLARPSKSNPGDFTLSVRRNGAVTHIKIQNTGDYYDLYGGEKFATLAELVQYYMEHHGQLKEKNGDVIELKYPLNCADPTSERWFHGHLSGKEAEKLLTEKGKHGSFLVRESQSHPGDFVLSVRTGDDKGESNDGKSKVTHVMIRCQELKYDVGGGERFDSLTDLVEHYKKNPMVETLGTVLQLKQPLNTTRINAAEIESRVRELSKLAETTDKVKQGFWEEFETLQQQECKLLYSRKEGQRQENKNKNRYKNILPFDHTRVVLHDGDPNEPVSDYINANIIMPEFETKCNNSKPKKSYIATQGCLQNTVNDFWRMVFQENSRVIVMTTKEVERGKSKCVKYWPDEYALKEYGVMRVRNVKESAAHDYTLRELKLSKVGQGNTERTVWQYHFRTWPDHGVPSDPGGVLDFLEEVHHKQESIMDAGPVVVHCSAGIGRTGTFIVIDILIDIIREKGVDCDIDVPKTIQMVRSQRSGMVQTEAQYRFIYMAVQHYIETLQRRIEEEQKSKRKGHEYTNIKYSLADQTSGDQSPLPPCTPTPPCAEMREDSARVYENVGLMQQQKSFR
Test: SHP2 allosteric inhibition experiment (Homogeneous Full Length SHP-2 Assay Kit)
Format: biochemical
Conditions: full-length SHP2 0.06 nM with SHP-2 activating peptide; ten-point, 1 μM to 0.05 nM; read-out: IC50 Values of Compounds Inhibiting SHP2
From the text: The following further describes and explains the present invention in combination with test examples, but these examples are not meant to limit the scope of the present invention. SHP2 allosteric inhibition experiment
The purpose of this test is to measure the ability of the compounds to inhibit the allosteric activity of the SHP2 full-length protein. Experimental equipment: a centrifuge (5810R) is purchased from Eppendorf Company; pipettes are purchased from Eppendorf Company and Rainin Company, and microplate readers are purchased from BioTek Company of the United States, SynergyH1 multimode microplate reader.
Experimental method: Homogeneous Full Length SHP-2 Assay Kit (BPS Bioscience, #79330) is used to detect SHP2 activity in vitro. First, add 18 μL of Master Mix to 96-well low-adsorption microplate (NUNC, #267342), that is, 0.5 μL of SHP-2 activating Peptide and 5 mM DTT are included in the reaction buffer with a final concentration of 1×. After centrifugation, add 5 μL of the compound to be tested in DMSO (final DMSO content is 1% (V/V) in each well: dissolve the compound to be tested in DMSO to 1 mM, conduct triple dilution with a total of 10 concentration levels ranging from 1 μM to 0.05 nM in the reaction buffer. After diluting SHP2 in 1× reaction buffer to a final concentration of 0.06 nM, add it to the reaction microwell plate, 2 μL per well. Set a full activity control ([…]) and a full inhibition control (without SHP-2) on the reaction plate, and incubate the reaction mixture at room temperature for 60 minutes after centrifugation.
After incubation, add 25 μL of Substrate solution to each well, containing Substrate with a final concentration of 10 μM and DTT with a final concentration of 5 mM, and after centrifugation, continue to incubate at room temperature for 30 minutes. After the reaction, set the excitation wavelength at 340 nm, the emission wavelength at 455 nm, and the gain value to 75 on the Synergy H1 microplate reader (Biotek) for reading.
Take the full activity control and full inhibition control as the values of Max and Min, and calculate the percentage inhibition rate of the wells treated with the compound based on the positive control wells (DMSO control wells) and negative control wells (no kinase added) on the reaction plate, (inhibition rate percentage=100−[(test compound−Min average value)/(Max average value−Min average value)]×100%. IC50 values of test compounds are calculated by fitting percentage of inhibition and ten-point concentration data to a 4-parameter nonlinear logic formula using GraphPad prism.

| SMILES | IC50 [nM] |
| --- | --- |
| C[C@@H]1OCC2(CCN(c3ccc4nc(Sc5cccc(-c6ccn(C)n6)c5Cl)ncc4n3)CC2)[C@@H]1N [Compound 65, (3S,4S)-8-(2-((2-chloro-3-(1-methyl-1H-pyrazole-3-yl)phenyl)mercapto)pyridinyl[3,2-d]pyrimidine-6-yl)-3-methyl-2-oxa-8-azaspiro[4.5]decane-4-amine] | ≤ 10 |
| C[C@@H]1OCC2(CCN(c3ccc4c(=O)n(-c5cccc(Cl)c5Cl)c(=O)[nH]c4n3)CC2)[C@@H]1N [Compound 25, 7-((3S,4S)-4-amino-3-methyl-2-oxa-8-azaspiro[4.5]decane-8-yl)-3-(2,3-dichlorophenyl)pyridinyl[2,3-d]pyrimidine-2,4(1H,3H)-dione] | ≤ 10 |
| C[C@@H]1OCC2(CCN(c3ccc4nc(Sc5cccc(NC(=O)c6cnccn6)c5Cl)ncc4n3)CC2)[C@@H]1N [Compound 86, N-(3-((6-((3S,4S)-4-amino-3-methyl-2-oxa-8-azaspiro[4.5]decane-8-yl)pyridinyl[3,2-d]pyrimidine-2-yl)mercapto)-2-chlorophenyl)pyrazine-2-carboxamide] | ≤ 10 |
| N[C@H]1c2ccncc2CC12CCN(c1ccc3c(=O)n(-c4cccc(Cl)c4Cl)c(=O)[nH]c3c1)CC2 [Compound 5, (S)-7-(5-Amino-5,7-dihydrospiro[cyclopenta[c]pyridine-6,4′-piperidine]-1′-yl)-3-(2,3-dichlorophenyl)auinazoline-2.4(1H,3H)-dione] | ≤ 10 |
| C[C@@H]1OCC2(CCN(c3cnc(Sc4cccc(Nc5cnccn5)c4Cl)nc3)CC2)[C@@H]1N [Compound 109, (3S,4S)-8-(2-((2-chloro-3-(pyrazine-2-amino)phenyl)mercapto)pyrimidine-5-yl)-3-me thyl-2-oxa-8-azaspiro[4.5]decane-4-amine] | 10 to 100 |
| C[C@@H]1OCC2(CCN(c3ccc(Sc4cccc(-c5cnccn5)c4Cl)nn3)CC2)[C@@H]1N [Compound 132, (3S,4S)-8-(3-((2-chloro-3-(pyrazine-2-yl)phenyl)mercapto)pyridazine-6-yl)-3-methyl-2-oxa-8-azaspiro[4.5]decane-4-amine] | ≤ 10 |
| CC1(N)CCN(c2cnc3c(=O)n(-c4cccc(Cl)c4Cl)c(=O)[nH]c3n2)CC1 [Compound 11] | 10 to 100 |
| C[C@@H]1OCC2(CCN(c3ccc4nc(Sc5cccc(NC(=O)c6ccncn6)c5Cl)ncc4n3)CC2)[C@@H]1N [Compound 83, N-(3-((6-((3S,4S)-4-amino-3-methyl-2-oxa-8-azaspiro[4.5]decane-8-yl)pyridinyl[3,2-d]pyrimidine-2-yl)mercapto)-2-chlorophenyl)pyrimidine-4-carboxamide] | ≤ 10 |
| Nc1nccc(-n2c(=O)[nH]c3nc(N4CCC5(CC4)Cc4ncccc4[C@H]5N)cnc3c2=O)c1Cl [Compound 19, (S)-3-(2-amino-3-chloropyridine-4-yl)-7-(5-amino-5,7-dihydrospiro[cyclopenta[b]pyridine-6,4′-piperidine]-1′-yl)pteridine-2,4(1H,3H)-dione] | ≤ 10 |
| C[C@@H]1OCC2(CCN(c3ccc4c(=O)n(-c5cccc(Cl)c5Cl)c(=O)[nH]c4c3)CC2)C1N (stereo in doubt) [Compound 1, 7-((3S,4S)-4-amino-3-methyl-2-oxa-8-azaspiro[4.5]decane-8-yl)-3-(2,3-dichlorophenyl)quinazoline-2,4(1H,3H)-dione] | ≤ 10 |
| C[C@@H]1OCC2(CCN(c3cnc4nc(Sc5cccc(NC(=O)c6cnccn6)c5Cl)ncc4n3)CC2)[C@@H]1N [Compound 84, N-(3-((6-((3S,4S)-4-amino-3-methyl-2-oxa-8-azaspiro[4.5]decane-8-yl)pteridine-2-yl)mercapto)-2-chlorophenyl)pyrazine-2-carboxamide] | ≤ 10 |
| NC1c2cccnc2CC12CCN(c1ccc3c(=O)n(-c4cccc(Cl)c4Cl)c(=O)[nH]c3c1)CC2 (stereo in doubt) [Compound 7, (S)-7-(5-Amino-5,7-dihydrospiro [cyclopenta[b]pyridine-6,4′-piperidine]-1′-yl)-3-(2,3-dichlorophenyl)quinazoline-2,4(1H,3H)-dione] | ≤ 10 |
| CC(C)n1ccc(-c2cccc(Sc3cnc(N4CCC5(CC4)CO[C@@H](C)[C@H]5N)nc3)c2Cl)n1 [Compound 113, (3S,4S)-8-(5-((2-chloro-3-(1-isopropyl-1H-pyrazole-3-yl)phenyl)mercapto)pyrimidine-2-yl)-3-methyl-2-oxa-8-azaspiro[4.5]decane-4-amine] | 10 to 100 |
| N[C@@H]1c2ccncc2CC12CCN(c1cnc3c(=O)n(-c4ccnc(NC5CC5)c4Cl)c(=O)[nH]c3n1)CC2 [Compound 24] | ≤ 10 |
| C[C@@H]1OCC2(CCN(c3cnc4nc(Sc5cccc(-c6cnccn6)c5Cl)ncc4n3)CC2)[C@@H]1N [Compound 72, (3S,4S)-8-(2-((2-chloro-3-(pyrazine-2-yl)phenyl)mercapto)pteridine-6-yl)-3-methyl-2-oxa-8-azaspiro[4.5]decane-4-amine] | ≤ 10 |
| C[C@@H]1OCC2(CCN(c3ncc(Sc4cccc(-c5cccnc5)c4Cl)cn3)CC2)[C@@H]1N [Compound 117, (3S,4S)-8-(5-((2-chloro-3-(pyridine-3-yl)phenyl)mercapto)pyrimidine-2-yl)-3-methyl-2-oxa-8-azaspiro[4.5]decane-4-amine] | ≤ 10 |
| C[C@@H]1OCC2(CCN(c3ncc4nc(Sc5cccc(-c6ccncn6)c5Cl)cnc4n3)CC2)[C@@H]1N [Compound 76, (3S,4S)-8-(6-((2-chloro-3-(pyrimidine-4-yl)phenyl)mercapto)pteridine-2-yl)-3-methyl-2-oxa-8-azaspiro[4.5]decane-4-amine] | ≤ 10 |
| C[C@@H]1OCC2(CCN(c3ncc(Sc4cccc(NC(=O)c5ncccn5)c4Cl)cn3)CC2)[C@@H]1N [Compound 123, N-(3-((2-((3S,4S)-4-amino-3-methyl-2-oxa-8-azaspiro[4.5]decane-8-yl I)pyrimidine-5-yl)mercapto)-2-chlorophenyl)pyrimidine-2-carboxamide] | ≤ 10 |
| C[C@@H]1OCC2(CCN(c3ncc(Sc4cccc(Nc5cnccn5)c4Cl)cn3)CC2)[C@@H]1N [Compound 121, (3S,4S)-8-(5-((2-chloro-3-(pyrazine-2-amino)phenyl)mercapto)pyrimidine-2-yl)-3-me thyl-2-oxa-8-azaspiro[4.5]decane-4-amine] | ≤ 10 |
| C[C@@H]1OCC2(CCN(c3cnc4c(=O)n(-c5ccnc(NC6CC6)c5Cl)c(=O)[nH]c4n3)CC2)[C@@H]1N [Compound 23] | ≤ 10 |
| C[C@@H]1OCC2(CCN(c3ncc(Sc4cccc(NC(=O)c5c(O)nc6n(c5=O)CCCC6)c4Cl)cn3)CC2)[C@@H]1N [Compound 114, N-(3-((2-((3S,4S)-4-amino-3-methyl-2-oxa-8-azaspiro[4.5]decane-8-yl)pyrimidine-5-yl)mercapto)-2-chlorophenyl)-2-hydroxyl-4-oxo-6,7,8,9-tetrahydro-4H-pyridinyl[1,2-a]pyrimidine-3-carboxamide] | 10 to 100 |
| C[C@@H]1OCC2(CCN(c3nnc(Sc4cccc(-c5cnccn5)c4Cl)nn3)CC2)[C@@H]1N [Compound 133, (3S,4S)-8-(3-((2-chloro-3-(pyrazine-2-yl)phenyl)mercapto)-tetrazine-6-yl)-3-methyl-2-oxa-8-azaspiro[4.5]decane-4-amine] | ≤ 10 |
| C[C@@H]1OCC2(CCN(c3ncc(Sc4cccc(-c5cncnc5)c4Cl)cn3)CC2)[C@@H]1N [Compound 115, (3S,4S)-8-(5-((2-chloro-3-(pyrimidine-5-yl)phenyl)mercapto)pyrimidine-2-yl)-3-methyl-2-oxa-8-azaspiro[4.5]decane-4-amine] | ≤ 10 |
